Structures are written as SMILES.

This data set in a line: gradient 5% acetonitrile 3 min, to 50% in 2 min, to 85% in 15 min, held 3 min, 100 µL/min. The note with it: column: Zorbax Extend-C18 2.1 x 50 mm; eluents: water / acetonitrile, 0.1% formic acid. In a few lines:
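Pure standards were run in mixtures of ~100 molecules by HPLC coupled to a quadrupole time-of-flight mass spectrometer. The column was a Zorbax Extend-C18 (2.1 × 50 mm, 1.8 μm) at 100 μL/min, with water and acetonitrile each containing 0.1% formic acid, in positive and negative ionization mode. Dead and dwell volumes were 40 μL and 900 μL. Retention time was taken from computationally picked adduct peaks, each manually inspected, with data collected over 3 months.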
As to `COc1ccc(C(C)NC(=O)C2CC(=O)N(c3ccc4c(c3)CCN4C(C)=O)C2)cc1` (centres undefined), the RP-LC retention time was found to be 688 s. On to `Cc1ccc(C)c(N2CCN(Cc3nc4nc(C)cc(N5CCN(C)CC5)n4n3)CC2)c1`, for which the RP-LC retention time amounted to 593 s. Consider `CCCCN(CCCNc1nc(C(=O)OCC)nc2ccccc12)c1ccccc1`, for which the RP-LC retention time was 732 s. Molecule `COc1ccc(C2CC(=O)N(c3ccc(C)c(Cl)c3)C(=O)C2)cc1OC` came in with an RP-LC retention time of 652 s.

As for `Cc1ccccc1-c1noc(C2CCCN2S(=O)(=O)c2ccc(Cl)cc2C)n1` (centres undefined), the RP-LC retention time turned out to be 1290 s. For the molecule `Cc1nn(-c2ccccc2)c(C)c1S(=O)(=O)N1CCC(C(=O)NCc2ccccc2Cl)CC1`, the RP-LC retention time came out at 963 s. In the case of `O=C(CN1CCN(Cc2cccc(Cl)c2)C1=O)NCc1ccc(N2CCCC2)cc1`, the RP-LC retention time is 854 s.

Turning to `COc1ccc(CNC(=O)CN2CCc3[nH]c4c(C)c(Cl)ccc4c(=O)c3C2)cc1`, the RP-LC retention time was 638 s. In the case of `CC(C)c1ccc(NC(=O)C2CCN(C(=O)C3Sc4ccccc4NC3=O)CC2)cc1` (centres undefined) it was 872 s; in that of `COC(=O)c1ccc(C(=O)OC)c(NC(=O)CSc2nc(C)cc(C)n2)c1`, 852 s.

Molecule `COc1cccc(-c2noc(C3CCCN3C(=O)Nc3cc(Cl)ccc3OC)n2)c1` (centres undefined) displayed an RP-LC retention time of 1130 s.

In turn, `COc1ccc(Cl)cc1NC(=O)CN1C(=O)C2CCCCN2c2ccc(C(=O)N3CCCC3)cc21` (centres undefined) yielded an RP-LC retention time of 934 s.

Consider `CCOC(=O)c1c(C)oc2ncnc(N3CCN(c4ccccn4)CC3)c12`, for which the RP-LC retention time was found to be 628 s. In the case of `COc1ccc(NC(=O)N2C[C@@H]3C[C@H]2C[C@@H]3NC(=O)c2cccs2)cc1F` it was 729 s.

With `CCCN(CC1CCOC1)C(=O)Nc1ccccc1` (centres undefined), the RP-LC retention time is 575 s.

`CCc1nnc(NC(=O)c2ccc(-c3ccccc3Cl)o2)s1` showed an RP-LC retention time of 906 s. In turn, `O=C(Nc1c(-c2ccccc2)nc2ccccn12)c1cc(Br)ccc1Cl` yielded an RP-LC retention time of 717 s. The molecule `CCc1cccc(C)c1NC(=O)Cn1nc2n(c1=O)CCCC2` came in with an RP-LC retention time of 717 s. In turn, `Cc1ccc2nc(NC(=O)CSc3nn4c(=O)c(C)nnc4s3)sc2c1` gave an RP-LC retention time of 704 s. For `COc1cccc(C(=O)NCCN2CCN(c3ccc(Cl)cc3)CC2)c1`, the RP-LC retention time was 745 s. Molecule `CCOc1ccc(-c2ccc(=O)n(Cc3nc(-c4ccc(F)cc4)no3)n2)cc1` returned an RP-LC retention time of 1090 s. In turn, `Cc1ccc(C(=O)N2CCC3(CC2)N=C(c2ccc(Cl)cc2)NO3)s1` returned an RP-LC retention time of 901 s. The molecule `O=C(NCCc1csc(C2CCN(C(=O)C3CCCC3)CC2)n1)C1CC1` yielded an RP-LC retention time of 690 s.

Take `CN(C)c1ccc(C(=O)N2CCN(C(=O)c3nnn4c3COC(c3ccc(Cl)cc3)C4)CC2)cc1` (centres undefined): the RP-LC retention time was 935 s. Turning to `CC(C)(C)C(=O)Nc1ccc2nc(N3CCN(c4ccccc4)CC3)cc(C(=O)O)c2c1`, the RP-LC retention time was determined as 683 s. Take `O=C(CC(=O)Nc1ccccc1Cl)Nc1ccc2nc3n(c(=O)c2c1)CCCCC3`: the RP-LC retention time stood at 772 s. The molecule `Cn1nc(-c2nc(C3CC3)no2)c2c1CCN(S(=O)(=O)c1cccc(Cl)c1)C2` returned an RP-LC retention time of 1000 s.

Take `CCCN(CC1CCOC1)C(=O)Nc1cccc(CC)c1` (centres undefined): the RP-LC retention time amounted to 864 s. In the case of `Cc1ccccc1Cn1cc(CCC(=O)NCCN2CCOCC2)c2ccccc21`, the RP-LC retention time came to 639 s. `CC(C)CN1CCN(C(=O)c2ccc(-c3cccs3)nc2)CC1` gave an RP-LC retention time of 602 s. Turning to `COc1ccccc1NC(=O)N1CCC(CNC(=O)C(=O)Nc2cccnc2)CC1`, the RP-LC retention time was 591 s. `Cc1ccc(NC(=O)N2CCCC(C)(C(=O)NCc3ccccc3C)C2)cc1Cl` (centres undefined): the RP-LC retention time amounted to 1080 s. As for `CCN(CC)C(=O)c1ccc(-c2nc3cc(NS(=O)(=O)c4ccccc4C)ccc3n2C)cc1`, the figure is 694 s; as for `CN1CCN(CCNC(=O)CCc2cn(-c3ccccc3)nc2-c2ccc3c(c2)OCO3)CC1`, 639 s; as for `Cc1ccc(NC(=O)Cn2c(=O)n(-c3ccccc3)c(=O)c3c2cc(C)n3C)cc1C`, 886 s. In the case of `Cc1noc(-c2ccc(-n3cnc(C(=O)NCC4CC4)c3)nc2)n1`, the RP-LC retention time worked out at 727 s. For `O=C(NCCn1ncccc1=O)c1c(F)cccc1F`, the RP-LC retention time came out at 584 s. In turn, `CCC(C)NC(=O)CCc1ccc2nc(-c3ccccc3)[nH]c2c1` (centres undefined) returned an RP-LC retention time of 621 s.

Turning to `COCCN1CC2(CCN(S(=O)(=O)c3ccc(C(C)C)cc3)CC2)C1c1ccccc1` (centres undefined), the RP-LC retention time was 776 s. As to `CCOc1ccccc1NC(=O)N1C[C@@H](F)C[C@H]1C(=O)N1CCCCC1`, the RP-LC retention time was 772 s. Take `CCCOc1ccc(C2C(=O)N(C3CCC(C)CC3)CC(=O)N2Cc2ccco2)cc1OC` (centres undefined): the RP-LC retention time was 1070 s. For `CCSc1ccc(-c2cccc(NC(=O)CC)c2)nn1`, the RP-LC retention time was found to be 787 s. As for `Cc1nnc(-c2ccc3ccn(CC(=O)N4CCN(c5ccccn5)CC4)c3c2)o1`, the RP-LC retention time turned out to be 598 s.

Consider `Cc1ccc(CNC(=O)C2CCCN(c3nnc(C)c4c(C)n(-c5ccccc5)nc34)C2)cc1` (centres undefined), for which the RP-LC retention time was 726 s.

For `Cc1ccc2cc(CCC(=O)NCCN3CCCCC3)c(=O)[nH]c2c1`, the RP-LC retention time came to 601 s. On to `Cc1cc(C)n(Cc2nc(-c3ccc(NC(=O)CC(C)(C)C)cc3)oc2C)n1`, for which the RP-LC retention time turned out to be 939 s. As for `Cc1cc2nn(CC(=O)Nc3cccc(F)c3)c(=O)n2c(Nc2ccc(F)cc2)n1`, the RP-LC retention time came out at 981 s.

`Cc1ccc(NC(=O)C(C)Oc2cc(C(F)(F)F)c3c(C)nn(C)c3n2)cc1C` (centres undefined) showed an RP-LC retention time of 586 s. Molecule `CC(C)c1nc(-n2cccc2)sc1C(=O)NCCc1ccccc1` came in with an RP-LC retention time of 1190 s. Molecule `CC(C)n1ncc(NC(=O)c2ccc(F)cc2)c(N2CCOCC2)c1=O` displayed an RP-LC retention time of 883 s. The molecule `CCc1ccc(C(=O)CC2(O)C(=O)Nc3ccc(C)cc32)cc1` (centres undefined) gave an RP-LC retention time of 804 s. `CCC(=O)NCc1nc2c(n1CC)CN(S(=O)(=O)c1cccc(F)c1)CC2`: the RP-LC retention time came to 529 s. Molecule `CCC/C(C)=C/c1ccc(CC)cn1` yielded an RP-LC retention time of 708 s.

For the molecule `COc1ccc2[nH]cc(CCNC(=O)CCC(=O)N3Cc4cccn4-c4ccccc43)c2c1`, the RP-LC retention time worked out at 850 s.

As for `Cc1nc(Cn2cccc2C(=O)Nc2ccccc2)no1`, the RP-LC retention time stood at 820 s. The molecule `O=C1NCCCCCCN(C(=O)Nc2ccc3c(c2)OCCO3)[C@H]2CCC[C@@H]12` returned an RP-LC retention time of 749 s. Molecule `O=C(Nc1cccc(C(F)(F)F)c1)c1cc2ncc(Br)cn2n1` showed an RP-LC retention time of 982 s. In the case of `Cc1nn(C)c(C)c1CCCN(C)C(=O)c1cc2c(s1)N(C)CCCC2`, the RP-LC retention time was determined as 770 s.

As for `COc1ccc(OC)c(NC(=O)N(C)Cc2nc3cc(C(=O)N(C)C)ccc3n2C)c1`, the RP-LC retention time was 605 s. Molecule `Cc1ccc(-n2c(=O)n(CC(=O)NCCCN(C)C)c3cccnc32)cc1` returned an RP-LC retention time of 593 s.

Molecule `CC(=O)c1ccc(S(=O)(=O)N2CCc3nc[nH]c3C2)cc1` had an RP-LC retention time of 585 s. In the case of `Cc1cccc2nc(-c3ccc(N4CCOCC4)cc3)c(Nc3ccc4c(c3)OCCO4)n12`, the RP-LC retention time was 664 s. In the case of `Nc1nc(OCc2ccccc2)c2[nH]cnc2n1` it was 654 s; in that of `CCCCn1cc(S(=O)(=O)NC2CCCCC2)c2cccnc21`, 1010 s; in that of `Fc1ccc(C2Cn3nnc(-c4nc(-c5cccc(F)c5)no4)c3CO2)cc1` (centres undefined), 1150 s. `COc1ccc(NC(=O)C2c3cc(OC)c(OC)cc3C(=O)N(C)C2c2cccs2)c(OC)c1` (centres undefined) had an RP-LC retention time of 846 s. As for `COc1nn(C)cc1C(=O)Nc1nc(-c2ccc3c(c2)CCCC3)cs1`, the figure is 1090 s.

With `O=C(Cc1nc(-c2ccccc2)n[nH]1)Nc1ccc(Cl)cc1`, the RP-LC retention time came to 789 s. As for `CCOc1ccc(NC(=O)NCC(c2cccnc2)c2cn(CC)c3ccccc23)cc1` (centres undefined), the RP-LC retention time turned out to be 751 s.

With `COc1ccc(-c2noc(C3(NC(=O)c4ccccc4OC)CCCCC3)n2)cc1`, the RP-LC retention time turned out to be 1210 s. With `Cc1ccc(-n2c(=O)c3sccc3n(Cc3nc(-c4ccc(F)cc4)no3)c2=O)cc1`, the RP-LC retention time stood at 1030 s. In turn, `O=C(NC1CCCCC1)N1CCCC(Cn2cnc3cccnc32)C1` (centres undefined) yielded an RP-LC retention time of 663 s.

For the molecule `O=C(Nc1cc(-c2cccs2)no1)c1cc(F)cc(F)c1`, the RP-LC retention time was found to be 1010 s. The molecule `Cn1cc(-c2cc3n(n2)CCCN3C(=O)CCC(=O)NCCCN2CCOCC2)c2ccccc21` gave an RP-LC retention time of 611 s. `CC(C)c1noc(C2CCCCN2Cc2nc(-c3ccccn3)no2)n1` (centres undefined): the RP-LC retention time came to 824 s. In the case of `CC1CCN(c2cc(-c3nc(-c4ccccc4)no3)c3ccccc3n2)CC1`, the RP-LC retention time was 1360 s. With `O=C(Nc1ccc2c(c1)OCCO2)N1CCN(Cc2nc3cccnc3n2-c2ccccc2)CC1`, the RP-LC retention time was determined as 635 s. In the case of `Cc1ccc(NC(=O)COc2cc(C)nc(N3CCN(c4ccccc4)CC3)n2)cc1` it was 852 s. On to `O=C1CCSc2ccc(S(=O)(=O)N3CCC(C(=O)NCc4ccccc4)CC3)cc2N1`, for which the RP-LC retention time stood at 761 s.

For the origin of these results see the METLIN SMRT retention time set (Domingo-Almenara et al. 2019).
